# System: advanced solid tumors
# Test: Tumor response per RECIST v1.1 (ORR, DCR, DOR, PFS), ITT population
# Format: in vivo, human
# From the text: The dose-expansion period included 3 populations: dose groups in which at least one patient achieved complete response (CR) or partial response (PR) per RECIST v1.1[16] and 1 dose group higher (evaluated for safety), as well as the dose group at the maximum tolerated dose (MTD)/recommended phase II dose (RP2D). Each of these groups included those patients in the respective dose-escalation group plus a planned additional 10 patients (approximately 20 patients in the MTD/RP2D group) with BRCA^mut+ solid tumors (ovarian, breast, or prostate cancer were preferred, and ovarian cancer could be BRCA wild type). Patients received senaparib monotherapy orally QD or BID (50-mg dose only) over each 3-week cycle until disease progression or unacceptable toxicity.
# Safety was assessed by recording the incidence of dose-limiting toxicities (DLTs), and the incidence, nature, severity (graded per National Cancer Institute Common Terminology Criteria for Adverse Events version 4.03 [NCI CTCAE v4.03][18]), and relatedness of treatment-emergent adverse events (TEAEs). DLTs were predefined toxicities (Supplementary Table S2) recorded over the 7 days following the single-dose administration of senaparib and during the first treatment cycle (day 1-day 21) for each dose group in the dose-escalation period only. The MTD was defined as the maximum dose at which ≤1/6 patients experienced a DLT. Senaparib PK parameters were derived from blood samples collected from patients after the single administration, and at regular intervals during the first cycle of the dose-escalation and dose-expansion periods. Plasma concentrations of senaparib were determined using high-performance liquid chromatography-tandem mass spectrometry. Tumor response was assessed every 6 weeks per RECIST v1.1,[16] recording objective response rate (ORR), disease control rate (DCR), duration of response (DOR), and progression-free survival (PFS) by dose level for all patients and for those harboring BRCA^mut+ tumors.
# There was no formal sample size calculation based on statistical hypothesis testing for this study; the planned enrolment was approximately 30-60 patients across the dose-escalation and dose-expansion cohorts. The actual number in the dose-escalation cohort was adjusted based on the number of dose cohorts required for the modified Fibonacci dose-escalation design and the determined MTD. Definitions for all analysis populations (safety, DLT, PK, and efficacy [intent-to-treat, ITT]) are provided in Supplementary Table S2. No statistical tests were performed; patient demographic and baseline characteristics, safety/tolerability, PK parameters, and efficacy were evaluated descriptively. ORR and DCR and their 95% CIs were calculated for each group using the exact probability method. Kaplan-Meier statistics were used to estimate DOR and PFS, and their 95% CIs for each dose group separately. Dose linearity was explored based on the single-dose data of area under the time-concentration curve (AUC) and maximum plasma concentration (Cmax) using the power model (Y = α × dose β) for the dose range 2-80 mg on a log-transformed scale. The following criterion was used to determine whether dose proportionality was met: if the (2-sided) 90% CI for β was wholly contained within the interval (1 + log(0.5)/log(r), 1 + log(2)/log(r)), then dose proportionality was supported. Here, r was defined as the ratio of the highest to lowest dose. All data analyses were carried out using SAS EG7.1 or higher or (for PK parameters) WinNonlin 7.0 or higher.
# [1] = ITT, evaluable n = 44, all doses
structure (smiles),measurement,setting,value
O=C(c1cc(Cn2c(=O)[nH]c(=O)c3c(F)cccc32)ccc1F)N1CCN(c2ncccn2)CC1 [Senaparib],Patients with a reduction from baseline in tumor size,BRCA wild-type (6/18),33.3%
same,Patients with a reduction from baseline in tumor size,BRCA^mut+ patients (13/26),50.0%
same,Median PFS,"ITT population, 95% CI, 56-255 days",167 days
same,"DOR, Events","ITT, 2 mg QD n = 1",0 n (%)
same,ORR,"ITT, 2 mg QD n = 1",0 n (%)
same,"PFS, Events","ITT, 2 mg QD n = 1",0 (0) n (%)
same,"DOR, Events","ITT, 5 mg QD n = 3",0 n (%)
same,ORR,"ITT, 5 mg QD n = 3",0 n (%)
same,"PFS, Events","ITT, 5 mg QD n = 3",2 (66.7) n (%)
same,"PFS, Median (95% CI)","ITT, 5 mg QD n = 3",464 (45-464) days
same,Complete response,"ITT, 10 mg QD n = 3",0 n (%)
same,DCR,"ITT, 10 mg QD n = 3",1 (33.3) n (%)
same,"DOR, Events","ITT, 10 mg QD n = 3",0 n (%)
same,ORR,"ITT, 10 mg QD n = 3",0 (0) n (%)
same,"PFS, Events","ITT, 10 mg QD n = 3",3 (100) n (%)
same,"PFS, Median (95% CI)","ITT, 10 mg QD n = 3",49 (47-88) days
same,Partial response,"ITT, 10 mg QD n = 3",0 n (%)
same,Stable disease,"ITT, 10 mg QD n = 3",1 (33.3) n (%)
same,Complete response,"ITT, 20 mg QD n = 5",0 n (%)
same,DCR,"ITT, 20 mg QD n = 5",2 (50.0) n (%)
same,"DOR, Events","ITT, 20 mg QD n = 5",1 (50.0) n (%)
same,"DOR, Median (95% CI)","ITT, 20 mg QD n = 5",— (1-NR)
same,ORR,"ITT, 20 mg QD n = 5",2 (50.0) n (%)
same,"PFS, Events","ITT, 20 mg QD n = 5",3 (60.0) n (%)
same,"PFS, Median (95% CI)","ITT, 20 mg QD n = 5",78 (39-NR) days
same,Partial response,"ITT, 20 mg QD n = 5",2 (50.0) n (%)
same,Stable disease,"ITT, 20 mg QD n = 5",0 n (%)
same,Complete response,"ITT, 40 mg QD n = 3",0 n (%)
same,DCR,"ITT, 40 mg QD n = 3",0 (0) n (%)
same,"DOR, Events","ITT, 40 mg QD n = 3",0 n (%)
same,ORR,"ITT, 40 mg QD n = 3",0 (0) n (%)
same,"PFS, Events","ITT, 40 mg QD n = 3",2 (66.7) n (%)
same,"PFS, Median (95% CI)","ITT, 40 mg QD n = 3",49 (48-NR) days
same,Partial response,"ITT, 40 mg QD n = 3",0 n (%)
same,Stable disease,"ITT, 40 mg QD n = 3",0 n (%)
same,Complete response,"ITT, 50 mg BID n = 4",0 n (%)
same,DCR,"ITT, 50 mg BID n = 4",2 (66.7) n (%)
same,"DOR, Events","ITT, 50 mg BID n = 4",0 n (%)
same,ORR,"ITT, 50 mg BID n = 4",1 (33.3) n (%)
same,"PFS, Events","ITT, 50 mg BID n = 4",1 (25.0) n (%)
same,"PFS, Median (95% CI)","ITT, 50 mg BID n = 4",— (46-NR)
same,Partial response,"ITT, 50 mg BID n = 4",1 (33.3) n (%)
same,Stable disease,"ITT, 50 mg BID n = 4",1 (33.3) n (%)
same,Complete response,"ITT, 60 mg QD n = 5",0 n (%)
same,DCR,"ITT, 60 mg QD n = 5",4 (100) n (%)
same,"DOR, Events","ITT, 60 mg QD n = 5",0 n (%)
same,ORR,"ITT, 60 mg QD n = 5",1 (25.0) n (%)
same,"PFS, Events","ITT, 60 mg QD n = 5",2 (40.0) n (%)
same,"PFS, Median (95% CI)","ITT, 60 mg QD n = 5",255 (127-NR) days
same,Partial response,"ITT, 60 mg QD n = 5",1 (25.0) n (%)
same,Stable disease,"ITT, 60 mg QD n = 5",3 (75.0) n (%)
same,Complete response,"ITT, 80 mg QD n = 9",0 n (%)
same,DCR,"ITT, 80 mg QD n = 9",6 (75.0) n (%)
same,"DOR, Events","ITT, 80 mg QD n = 9",4 (100) n (%)
same,"DOR, Median (95% CI)","ITT, 80 mg QD n = 9",144.5 (39-211) days
same,ORR,"ITT, 80 mg QD n = 9",4 (50.0) n (%)
same,"PFS, Events","ITT, 80 mg QD n = 9",8 (88.9) n (%)
same,"PFS, Median (95% CI)","ITT, 80 mg QD n = 9",167 (40-216) days
same,Partial response,"ITT, 80 mg QD n = 9",4 (50.0) n (%)
same,Stable disease,"ITT, 80 mg QD n = 9",2 (25.0) n (%)
same,Complete response,"ITT, 100 mg QD n = 20",0 n (%)
same,DCR,"ITT, 100 mg QD n = 20",12 (70.6) n (%)
same,"DOR, Events","ITT, 100 mg QD n = 20",1 (50.0) n (%)
same,"DOR, Median (95% CI)","ITT, 100 mg QD n = 20",— (169-NR)
same,ORR,"ITT, 100 mg QD n = 20",2 (11.8) n (%)
same,"PFS, Events","ITT, 100 mg QD n = 20",8 (40.0) n (%)
same,"PFS, Median (95% CI)","ITT, 100 mg QD n = 20",289 (48-NR) days
same,Partial response,"ITT, 100 mg QD n = 20",2 (11.8) n (%)
same,Stable disease,"ITT, 100 mg QD n = 20",10 (58.8) n (%)
same,Complete response,"ITT, 120 mg QD n = 4",0 n (%)
same,DCR,"ITT, 120 mg QD n = 4",1 (33.3) n (%)
same,"DOR, Events","ITT, 120 mg QD n = 4",0 n (%)
same,ORR,"ITT, 120 mg QD n = 4",0 (0) n (%)
same,"PFS, Events","ITT, 120 mg QD n = 4",3 (75.0) n (%)
same,"PFS, Median (95% CI)","ITT, 120 mg QD n = 4",153 (44-258) days
same,Partial response,"ITT, 120 mg QD n = 4",0 n (%)
same,Stable disease,"ITT, 120 mg QD n = 4",1 (33.3) n (%)
same,Complete response,"ITT, Total N = 57",0 n (%)
same,DCR,"ITT, Total N = 57",28 (63.6) n (%)
same,"DOR, Events","ITT, Total N = 57",6 (60.0) n (%)
same,"DOR, Median (95% CI)","ITT, Total N = 57",169 (1-NR) days
same,ORR,"ITT, Total N = 57",10 (22.7) n (%)
same,"PFS, Events","ITT, Total N = 57",32 (56.1) n (%)
same,"PFS, Median (95% CI)","ITT, Total N = 57",167 (56-255) days
same,Partial response,"ITT, Total N = 57",10 (22.7) n (%)
same,Stable disease,"ITT, Total N = 57",18 (40.9) n (%)
same,Disease control rate (DCR),[1],63.6%
same,Objective response rate (ORR),[1],22.7%
same,"Stable disease, patients",[1],40.9%
same,Median DOR,"ITT, 95% CI, 1-not reached",169 days
same,Doses at which antitumor activity was observed,in vivo,≥ 20 mg QD
same,Patients with a decrease from baseline in tumor size,non-ovarian cancers (6/20),30.0%
same,Patients with a decrease from baseline in tumor size,ovarian cancer (13/24),54.2%
same,ORR,patients with breast cancer (3/12),25.0%
same,ORR,patients with ovarian cancer (5/25),20.0%
same,ORR,patients with prostate cancer (1/4),25.0%

# Source: PMC10712727, “Safety, Tolerability, and Pharmacokinetics of Senaparib, a Novel PARP1/2 Inhibitor, in Chinese Patients With Advanced Solid Tumors: A Phase I Trial” (The Oncologist, 2023)
